pKi: −log10 of the molar value.
Experiments:
[1] = target: T1, 5-hydroxytryptamine receptor 2C (Homo sapiens) (UniProt P28335); experiment: Displacement of [3H]mesulergine from 5HT2C receptor (unknown origin) at 10 uM
T1 sequence (whole entry): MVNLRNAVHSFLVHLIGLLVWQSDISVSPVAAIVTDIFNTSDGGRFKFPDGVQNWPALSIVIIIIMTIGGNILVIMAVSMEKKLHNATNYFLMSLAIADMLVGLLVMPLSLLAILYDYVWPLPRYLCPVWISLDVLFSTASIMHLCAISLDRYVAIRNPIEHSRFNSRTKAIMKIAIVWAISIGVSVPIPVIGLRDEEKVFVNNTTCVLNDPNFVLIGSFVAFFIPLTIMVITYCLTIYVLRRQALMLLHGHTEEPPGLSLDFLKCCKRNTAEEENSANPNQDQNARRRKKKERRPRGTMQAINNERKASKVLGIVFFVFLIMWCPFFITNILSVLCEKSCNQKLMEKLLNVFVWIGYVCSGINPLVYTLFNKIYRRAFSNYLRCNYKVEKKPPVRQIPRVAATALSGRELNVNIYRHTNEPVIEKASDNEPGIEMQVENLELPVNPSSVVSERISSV

[2] = target: T2, 5-hydroxytryptamine receptor 1A (Homo sapiens) (UniProt P08908); experiment: Displacement of [3H]-8-OH-DPAT from 5HT1A receptor (unknown origin) at 10 uM
T2 sequence (whole entry): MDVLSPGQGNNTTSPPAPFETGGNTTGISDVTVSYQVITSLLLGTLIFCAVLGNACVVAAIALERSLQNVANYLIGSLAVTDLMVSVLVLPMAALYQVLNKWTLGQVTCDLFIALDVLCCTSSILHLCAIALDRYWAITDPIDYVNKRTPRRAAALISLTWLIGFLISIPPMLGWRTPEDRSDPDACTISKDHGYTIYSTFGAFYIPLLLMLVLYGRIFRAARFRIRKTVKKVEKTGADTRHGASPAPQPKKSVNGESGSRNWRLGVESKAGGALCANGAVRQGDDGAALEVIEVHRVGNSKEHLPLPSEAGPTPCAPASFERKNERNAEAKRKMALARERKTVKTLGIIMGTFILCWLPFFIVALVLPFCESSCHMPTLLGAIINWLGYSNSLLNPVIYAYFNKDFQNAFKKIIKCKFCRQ

[3] = target: 5-hydroxytryptamine receptor 2A (Homo sapiens) (UniProt P28223); experiment: Displacement of [3H]ketanserin from 5HT2A receptor (unknown origin) at 10 uM
[4] = target: 5-hydroxytryptamine receptor 1D (Homo sapiens) (UniProt P28221); experiment: Displacement of [3H]GR125743 from 5HT1D receptor (unknown origin) at 10 uM
[5] = target: T3, 5-hydroxytryptamine receptor 1B (Homo sapiens, UniProt P28222); experiment: Displacement of [3H]GR125743 from 5HT1B receptor (unknown origin) at 10 uM
[6] = target: T4, 5-hydroxytryptamine receptor 2B (Homo sapiens, UniProt P41595); experiment: Displacement of [3H]LSD from 5HT2B receptor (unknown origin)
[7] = target: 5-hydroxytryptamine receptor 7 (Homo sapiens) (UniProt P34969); experiment: Displacement of [3H]LSD from 5HT7 receptor (unknown origin) at 10 uM
[8] = target: 5-hydroxytryptamine receptor 1E (Homo sapiens) (UniProt P28566); experiment: Displacement of [3H]5HT from 5HT1E receptor (unknown origin) at 10 uM
[9] = target: 5-hydroxytryptamine receptor 5A (Homo sapiens) (UniProt P47898); experiment: Displacement of [3H]LSD from 5HT5A receptor (unknown origin) at 10 uM
[10] = target: T4, 5-hydroxytryptamine receptor 2B; experiment: Displacement of [3H]LSD from 5HT2B receptor (unknown origin) at 10 uM
[11] = target: T5, 5-hydroxytryptamine receptor 3A (Homo sapiens) (UniProt P46098); experiment: Displacement of [3H]LY278584 from 5HT3 receptor (unknown origin) at 10 uM
T5 sequence (whole entry): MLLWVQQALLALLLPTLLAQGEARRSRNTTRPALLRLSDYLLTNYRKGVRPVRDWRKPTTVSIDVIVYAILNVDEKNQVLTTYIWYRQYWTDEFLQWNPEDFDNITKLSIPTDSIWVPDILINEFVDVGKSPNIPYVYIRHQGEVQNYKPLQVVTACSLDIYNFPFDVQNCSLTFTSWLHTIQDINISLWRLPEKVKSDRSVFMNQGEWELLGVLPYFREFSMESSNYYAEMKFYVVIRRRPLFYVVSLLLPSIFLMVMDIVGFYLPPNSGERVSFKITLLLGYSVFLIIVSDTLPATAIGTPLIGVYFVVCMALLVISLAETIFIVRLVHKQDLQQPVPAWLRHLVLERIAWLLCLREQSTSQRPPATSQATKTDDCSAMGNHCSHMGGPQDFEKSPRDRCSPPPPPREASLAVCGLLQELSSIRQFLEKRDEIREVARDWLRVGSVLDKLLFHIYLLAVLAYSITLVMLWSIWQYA

[12] = target: T3, 5-hydroxytryptamine receptor 1B; experiment: Displacement of [3H]GR125743 from 5HT1B receptor (unknown origin)

Chain of 5-hydroxytryptamine receptor 5A (Homo sapiens) (P47898 whole entry): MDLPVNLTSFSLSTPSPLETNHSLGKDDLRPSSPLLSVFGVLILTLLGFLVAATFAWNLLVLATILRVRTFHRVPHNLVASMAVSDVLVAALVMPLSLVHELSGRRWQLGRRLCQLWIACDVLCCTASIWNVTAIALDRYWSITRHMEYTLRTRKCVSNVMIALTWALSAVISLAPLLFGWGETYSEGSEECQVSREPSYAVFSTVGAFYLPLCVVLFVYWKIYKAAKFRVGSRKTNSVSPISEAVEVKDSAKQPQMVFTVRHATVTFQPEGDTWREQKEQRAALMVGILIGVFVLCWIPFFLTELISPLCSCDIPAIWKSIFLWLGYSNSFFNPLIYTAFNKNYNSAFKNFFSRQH
Chain of 5-hydroxytryptamine receptor 7 (Homo sapiens) (P34969 whole entry): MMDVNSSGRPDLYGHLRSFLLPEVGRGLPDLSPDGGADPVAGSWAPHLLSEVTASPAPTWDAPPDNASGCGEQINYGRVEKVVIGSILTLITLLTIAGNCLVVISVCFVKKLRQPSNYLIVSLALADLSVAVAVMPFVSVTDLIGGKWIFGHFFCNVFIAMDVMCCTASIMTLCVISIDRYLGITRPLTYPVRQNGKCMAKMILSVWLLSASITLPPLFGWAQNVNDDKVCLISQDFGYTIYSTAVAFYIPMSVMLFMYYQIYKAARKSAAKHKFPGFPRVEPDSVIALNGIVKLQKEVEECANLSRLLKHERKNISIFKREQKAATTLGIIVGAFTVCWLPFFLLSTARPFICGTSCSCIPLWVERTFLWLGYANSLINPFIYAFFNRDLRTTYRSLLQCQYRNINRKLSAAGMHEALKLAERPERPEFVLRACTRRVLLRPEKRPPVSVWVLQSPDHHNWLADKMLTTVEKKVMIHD
Chain of 5-hydroxytryptamine receptor 2A (Homo sapiens) (P28223 whole entry): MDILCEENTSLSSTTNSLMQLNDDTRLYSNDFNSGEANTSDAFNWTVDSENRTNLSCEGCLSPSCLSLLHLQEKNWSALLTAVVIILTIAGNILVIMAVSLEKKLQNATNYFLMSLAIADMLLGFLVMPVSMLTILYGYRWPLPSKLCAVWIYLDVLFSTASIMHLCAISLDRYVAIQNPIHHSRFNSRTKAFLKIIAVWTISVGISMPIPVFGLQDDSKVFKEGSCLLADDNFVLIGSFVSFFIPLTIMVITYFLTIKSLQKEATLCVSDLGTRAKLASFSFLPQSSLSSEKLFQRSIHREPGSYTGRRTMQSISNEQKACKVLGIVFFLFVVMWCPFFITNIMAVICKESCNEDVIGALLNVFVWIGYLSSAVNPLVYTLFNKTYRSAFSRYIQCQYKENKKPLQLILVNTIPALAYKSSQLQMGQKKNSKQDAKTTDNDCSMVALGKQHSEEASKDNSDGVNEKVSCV
Chain of 5-hydroxytryptamine receptor 1E (Homo sapiens) (P28566 whole entry): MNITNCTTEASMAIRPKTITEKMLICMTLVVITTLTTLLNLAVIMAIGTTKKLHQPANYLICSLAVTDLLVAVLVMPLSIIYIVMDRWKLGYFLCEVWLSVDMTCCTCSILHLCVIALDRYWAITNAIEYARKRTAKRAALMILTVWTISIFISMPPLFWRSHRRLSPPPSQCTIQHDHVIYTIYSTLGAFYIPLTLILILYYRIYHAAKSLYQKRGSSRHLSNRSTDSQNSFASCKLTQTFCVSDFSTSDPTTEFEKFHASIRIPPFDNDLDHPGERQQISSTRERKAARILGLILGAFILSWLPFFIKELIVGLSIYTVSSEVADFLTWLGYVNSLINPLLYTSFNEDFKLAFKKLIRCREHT
T3 sequence (P28222 whole entry): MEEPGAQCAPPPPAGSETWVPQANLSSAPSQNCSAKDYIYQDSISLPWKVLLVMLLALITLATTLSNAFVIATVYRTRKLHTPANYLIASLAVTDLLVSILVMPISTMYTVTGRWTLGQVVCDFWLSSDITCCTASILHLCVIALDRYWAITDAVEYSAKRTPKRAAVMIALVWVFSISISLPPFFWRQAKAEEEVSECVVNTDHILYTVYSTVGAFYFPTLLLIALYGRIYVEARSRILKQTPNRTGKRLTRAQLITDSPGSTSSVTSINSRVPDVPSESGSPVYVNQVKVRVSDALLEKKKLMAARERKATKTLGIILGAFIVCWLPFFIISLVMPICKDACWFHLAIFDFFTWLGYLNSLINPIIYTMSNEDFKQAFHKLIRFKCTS
T4 sequence (P41595 whole entry): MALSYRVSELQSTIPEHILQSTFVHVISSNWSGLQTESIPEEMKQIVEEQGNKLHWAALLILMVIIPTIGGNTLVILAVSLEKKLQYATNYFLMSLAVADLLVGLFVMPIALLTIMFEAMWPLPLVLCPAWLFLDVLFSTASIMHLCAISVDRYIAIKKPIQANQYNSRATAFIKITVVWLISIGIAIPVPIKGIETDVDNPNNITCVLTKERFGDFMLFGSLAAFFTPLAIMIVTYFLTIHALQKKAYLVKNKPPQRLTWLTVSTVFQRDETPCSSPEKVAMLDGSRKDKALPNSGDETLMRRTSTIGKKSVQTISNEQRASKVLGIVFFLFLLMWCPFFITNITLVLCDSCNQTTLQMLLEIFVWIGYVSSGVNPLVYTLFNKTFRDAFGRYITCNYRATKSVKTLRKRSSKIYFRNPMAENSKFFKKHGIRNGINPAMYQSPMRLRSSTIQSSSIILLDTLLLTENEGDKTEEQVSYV
Chain of 5-hydroxytryptamine receptor 1D (Homo sapiens) (P28221 whole entry): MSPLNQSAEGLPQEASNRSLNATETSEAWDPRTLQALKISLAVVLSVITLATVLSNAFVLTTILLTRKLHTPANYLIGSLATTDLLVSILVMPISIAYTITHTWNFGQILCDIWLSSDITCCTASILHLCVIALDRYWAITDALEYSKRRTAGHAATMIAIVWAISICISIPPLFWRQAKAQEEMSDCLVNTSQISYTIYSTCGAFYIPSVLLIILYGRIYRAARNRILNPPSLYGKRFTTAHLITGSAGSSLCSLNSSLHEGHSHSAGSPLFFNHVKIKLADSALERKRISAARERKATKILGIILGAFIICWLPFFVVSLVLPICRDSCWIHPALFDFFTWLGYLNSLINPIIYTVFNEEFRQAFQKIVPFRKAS

inhibition [1] [%] | inhibition [2] [%] | inhibition [3] [%] | inhibition [4] [%] | inhibition [5] [%] | pKi [6] | inhibition [7] [%] | inhibition [8] [%] | inhibition [9] [%] | inhibition [10] [%] | inhibition [11] [%] | Compound | pKi [12]
13.1 | 27 | 32.3 | 22.4 | 51.7 | 6.51 | 8.6 | 2.1 | 5.2 | 84 | 0.7 | CCCOc1c(OC)cc2c3c1-c1cc4c(cc1CC3N(C)CC2c1ccccc1)OCO4 (stereo not given) | 5.79
-6.6 | 25.9 | 15.8 | 9.8 | 2.1 |  |  | -0.1 | -9.3 | 24.4 | -7.4 | COc1cc2c3c(c1OCc1ccc(Br)cc1)-c1cc4c(cc1CC3N(C)CC2c1ccccc1)OCO4 (stereo not given) | 
-2.3 | 24.2 | 29.2 | 15.8 | -5.2 | 6.15 | 31.3 | 11 | 1.8 | 50.3 | 4.1 | COc1cc2c3c(c1O)-c1cc4c(cc1CC3N(C)CC2c1ccccc1)OCO4 (stereo not given) | 
13.5 | -0.9 | 40.1 | 29.7 | 20.6 | 6.68 | 26 | 10.3 | -7.6 | 83.3 | -2.7 | CCOc1c(OC)cc2c3c1-c1cc4c(cc1CC3N(C)CC2c1ccccc1)OCO4 (stereo not given) | 
48 | 18.4 | 40.9 | 24 | 41.4 | 6.22 | -5.1 | 7.3 | 17.6 | 76.1 | 11.6 | CCCCOc1c(OC)cc2c3c1-c1cc4c(cc1CC3N(C)CC2c1ccccc1)OCO4 (stereo not given) | 
9.4 | 13.3 | 9.6 | 22.4 | 16.2 | 5.84 | 18.3 | 3.5 |  | 73.7 |  | COc1cc2c3c(c1OC)-c1cc4c(cc1CC3N(CC1CC1)CC2c1ccccc1)OCO4 (stereo not given) | 
28.8 | 19.2 | 47.8 | 22.6 | 19.4 | 6.38 | 24.7 | 3.3 | -9.8 | 72.1 | 8.3 | C=CCOc1c(OC)cc2c3c1-c1cc4c(cc1CC3N(C)CC2c1ccccc1)OCO4 (stereo not given) | 

Compound | inhibition [1] [%] | inhibition [2] [%] | inhibition [3] [%] | inhibition [4] [%] | inhibition [5] [%] | pKi [6] | inhibition [7] [%] | inhibition [8] [%] | inhibition [9] [%] | inhibition [10] [%] | inhibition [11] [%] | pKi [12]
COc1cc2c3c(c1OCC1CC1)-c1cc4c(cc1CC3N(C)CC2c1ccccc1)OCO4 (stereo not given) | 32.4 | -9.8 | 42.9 | 31.9 | 60.2 | 6.52 | 6.9 | 27.4 | 5.2 | 77.1 | 7.7 | 5.61
CCN1CC(c2ccccc2)c2cc(OC)c(OC)c3c2C1Cc1cc2c(cc1-3)OCO2 (stereo not given) | -1.6 | 3.3 | 12.8 | 27.4 | 23.6 | 6.38 | 8.9 | 5 |  | 88.4 | -4.1 | 
CCCCCCOc1c(OC)cc2c3c1-c1cc4c(cc1CC3N(C)CC2c1ccccc1)OCO4 (stereo not given) | 49.3 |  | 19.9 | 13.4 | 4.3 | 6.18 |  | 2.4 | -6.2 | 63.6 | 0.8 | 
